# Test results from patent publication US4444776A, “Dipyrido (4,3-B) (3,4-F) indoles, process for obtaining them, therapeutical use and pharmaceutical compositions” (priority 1977, dated 1984).
# How the values were obtained:
# L 1210 leukemia [1] = test: Test 10: comparison of antitumoral activity with known products, L 1210 (Tables V-VII); assay type: in vivo, mouse
# Description: Test 10: Comparison of the antitumoral activity of the compound according to example 7 with that of known products
# The compound of example 7, i.e. 1-(γ-diethylaminopropyl)amino-5-methyl-dipyrido-[4,3-b][3,4-f] indole or known compounds were injected into L 1210 leukemic mice 1 or 3 days after the inoculation of the cells at the doses indicated in tables V to VII and the mean survival time (MST) and the precentage of increased life span (ILS %) were measured.
# Indications concerned the known products used in this example and particularly their antitumoral properties, their secondary effects and their use in man may be found in "La Chimiotherapie des Cancers", by G. MATHE and M. KENIS Expansion Scientifique Francaise, 3rd edition, Paris 1975.
# L 1210 leukemia [2] = test: Test 12: single vs fractioned dose, L 1210 leukemic mice (Table IX); assay type: in vivo, mouse; set-up: MTS: unit not given beside the values
# L1210 leukemia = test: Test 17: length of substituting chain, L1210 (Table XIII); assay type: in vivo, mouse
# Description: Test 17: Relationship between the length of the substituting chain and the activity.
# However compound 21 is less toxic (50 mg/kg for compound 21 and 25 mg/kg for compound 23), it has a higher ILS% than compound 23 and 1 mouse survived up to 60 days.
# Cl3/8 cells = test: Test 5: cytotoxic effect in vitro, Cl3/8 cells; assay type: cell-based, hamster
# Description: Test 5: Cytotoxic effect in vitro
# The cytotoxic effects of the compounds according to the invention were tested in vitro on cultures of hamster, human and mouse cells.
# In particular, the BHK21 strain of hamster cells and a clone derived from this strain transformed by Hamster Sarcoma Virus HS5 clone) were used.
# 5 hours later, the cells were well attached to the plastic support, and the products to be tested were added, dilutions having been made thereof in water or in DMSO (dimethylsulfoxide) if the product is sparingly soluble in water. In this latter case, a control was made with the same final concentration of DMSO in the culture medium.
# The state of the cells was examined 24, 48 and 72 hours afterwards.
# [3] = Table V, 10^4 cells, J+1, 0.2 mg/mouse
# [4] = Table V, 10^4 cells, J+3, doses mg/mouse: example 7 0.2, Thiotepa 0.1, Mitomycine 0.016, BCNU 0.1, Methotrexate 0.250
# [5] = Table VI, 10^5 cells, J+1, 0.2 mg/mouse
# [6] = Table VI, 10^5 cells, J+3, mg/mouse: Thiotepa 0.1, Mitomycine C 0.016, BCNU 0.1, Methotrexate 0.250, example 7 0.2, Endoxan 4
# [7] = Table VII, 10^5 cells, J+3, example 7 0.2 mg/mouse, ON COVIN 0.5 μg/mouse
# [8] = 10^4 cells, 0.2 mg/mouse single at J+3
# [9] = 10^4 cells, 4 × 0.05 mg/mouse at J+3+4+5+6
# [10] = 10^5 cells, 0.2 mg/mouse single at J+3
# [11] = 10^5 cells, 4 × 0.05 mg/mouse at J+3+4+5+6
smiles,measurement,setting,value
"CCN(CC)CCCNc1nccc2c(C)c3[nH]c4ccncc4c3cc12 [Example 7, 1-(γ-diethylaminopropyl)amino-5-methyl-dipyrido-[4,3-b][3,4-f] indole]",Range of death (first death),L 1210 leukemia [1]; [3],6 days
same,mice alive on 30th day,L 1210 leukemia [1]; [3],1
same,ILS %,L 1210 leukemia [1]; [4],25.45%
same,MTS (mean survival time),L 1210 leukemia [1]; [4],13.8
same,Range of death,"L 1210 leukemia [1]; Table V, 10^4 cells, J+3, mg/mouse: example 7 0.2, Thiotepa 0.1, Mitomycine 0.016, BCNU 0.1, Methotrexate 0.250, Endoxan 4",11 to 17 days
same,ILS %,L 1210 leukemia [1]; [5],39.07%
same,MTS (mean survival time),L 1210 leukemia [1]; [5],12.6
same,Range of death,L 1210 leukemia [1]; [5],9-16
same,ILS %,L 1210 leukemia [1]; [6],35.43%
same,MTS (mean survival time),L 1210 leukemia [1]; [6],12.27
same,Range of death,L 1210 leukemia [1]; [6],10-15
same,ILS %,L 1210 leukemia [1]; [7],36.35%
same,MTS (mean survival time),L 1210 leukemia [1]; [7],14.18
same,Range of death,L 1210 leukemia [1]; [7],13-16
same,ILS %,L 1210 leukemia [2]; [8],19.32%
same,MTS,L 1210 leukemia [2]; [8],14.2
same,Surviving mice,L 1210 leukemia [2]; [8],1
same,ILS %,L 1210 leukemia [2]; [9],21%
same,MTS,L 1210 leukemia [2]; [9],14.4
same,Surviving mice,L 1210 leukemia [2]; [9],0
same,ILS %,L 1210 leukemia [2]; [10],36.35%
same,MTS,L 1210 leukemia [2]; [10],14.18
same,ILS %,L 1210 leukemia [2]; [11],28.85%
same,MTS,L 1210 leukemia [2]; [11],13.4
same,"antitumoral activity, single vs fractioned dose",L 1210 leukemia [2]; same dose single or on 4 occasions,a single dose has greater antitumoral activity than the same dose injected on 4 occasions
same,activity against L1210 leukemia (in words),L1210 leukemia; Table XIII summary,the compound the most active on the mice
same,ILS %,L1210 leukemia; day +1,69.2%
same,Survivors up to 60 days,L1210 leukemia; day +1,1
same,MST,"L1210 leukemia; day +1, control MST 8.8",14.9
same,Range of death,"L1210 leukemia; day +1, control MST 8.8",12-18
same,ILS %,L1210 leukemia; day +4,65.6%
same,Survivors up to 60 days,L1210 leukemia; day +4,0
same,MST,"L1210 leukemia; day +4, control MST 11.2",18.5
same,Range of death,"L1210 leukemia; day +4, control MST 11.2",14-32
same,cytotoxic activity compared with 2-methyl-9-hydroxy-ellipticinium acetate and 9-hydroxy-ellipticine,Cl3/8 cells; Table III summary,just as active as the already known derivatives
same,activity compared with products presently used as antitumoral agents in lower animals,Cl3/8 cells; general statement,"just as active, or more so"
